PMC4450660, “Biochemical and Structural Characterization of Enolase from Chloroflexus aurantiacus: Evidence for a Thermophilic Origin” (Frontiers in Bioengineering and Biotechnology, 2015)

Biological target: T1, EnoCa (enolase-1 from Chloroflexus aurantiacus) (Chloroflexus aurantiacus, UniProt A9WCM4)
T1 construct: gene eno; native protein purified from C. aurantiacus cells, untagged; homodimer, subunit ~46 kDa, total ~92-96 kDa
Assay: X-ray crystal structure of the complex
Assay type: binding
Conditions: active site, closed conformation, second Mg2+ modelled; crystals at pH 9.0

T1 sequence (A9WCM4 whole entry): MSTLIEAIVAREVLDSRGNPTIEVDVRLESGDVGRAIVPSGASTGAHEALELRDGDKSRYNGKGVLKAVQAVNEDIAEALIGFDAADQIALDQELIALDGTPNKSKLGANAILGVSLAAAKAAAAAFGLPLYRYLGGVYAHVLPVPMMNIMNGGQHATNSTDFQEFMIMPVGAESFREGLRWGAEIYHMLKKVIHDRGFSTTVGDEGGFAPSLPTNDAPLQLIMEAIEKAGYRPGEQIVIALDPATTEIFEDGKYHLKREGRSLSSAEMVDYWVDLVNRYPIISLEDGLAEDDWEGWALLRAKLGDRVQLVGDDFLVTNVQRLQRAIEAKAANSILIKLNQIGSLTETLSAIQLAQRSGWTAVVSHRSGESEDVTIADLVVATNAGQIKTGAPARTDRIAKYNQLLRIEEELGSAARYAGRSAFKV

In the case of `C=C(OP(=O)(O)O)C(=O)O` [phosphoenolpyruvate], the “X-ray crystal structure of the complex” value is reported as “PEP itself is bound by Glu165, Glu206, Lys338, Arg367, and Ser368”.
